# From US10421769B2, “Anticancer property studies of chiral palladium N-heterocyclic carbene complexes and process for preparation thereof” (Indian Institute of Technology Bombay, priority 2017, dated 2019)
# Entries after “also recorded” stand apart in the source; their conditions may differ.
# Columns and labels:
# [1] = system: A549 cells; assay: Sulforhodamine B assay, A549 lung cancer cells; assay type: cell-based, human; conditions: SRB
# Protocol: (§1) The present invention further provides a Sulforhodamine B assay method for investigating the anti-cancer efficacies of the compounds of the present Pd—NHC series on MCF-7, HeLa, A549, B16-F10 and EMT6/AR1 cancer cell lines and also for a comparative study on normal skin cell line L929 and normal epithelial breast cells MCF10A. The said Sulforhodamine B assay is conducted as per reported method (Skehan et al., J. Natl. Cancer Inst. 1990, 82, 1107).
# [2] = system: B16-F10 cells; assay: Sulforhodamine B assay, B16-F10 skin cancer cells; assay type: cell-based, mouse; conditions: SRB
# Protocol: as §1
# [3] = system: EMT6/AR1 cells; assay: Sulforhodamine B assay, multidrug resistant EMT6/AR1 cells; assay type: cell-based, mouse; conditions: EMT6/AR1 multidrug resistant mammary cancer cells, SRB
# Protocol: as §1
# [4] = system: L929 cells; assay: Sulforhodamine B assay, normal skin cells L929 (selectivity); assay type: cell-based; conditions: L929 IC50 against B16-F10 IC50
# Protocol: as §1
# [5] = system: MCF10A cells; assay: Sulforhodamine B assay, normal epithelial breast cells MCF10A (selectivity); assay type: cell-based; conditions: MCF10A IC50 against MCF-7 IC50
# Protocol: as §1
# [6] = system: MCF-7 cells; assay: Live dead assay by flow cytometry using propidium iodide; assay type: cell-based, human; conditions: for Dead % / Live %: 48 h
# Protocol: MCF-7 cells (5 mL) were seeded in 60 mm cell culture dishes at a density of 1.5×10^5 cells/mL. Cells were incubated with 4 and 8 μM (1R,2R,5S)-1c for 48 h for live dead assay. After the required incubation, cells were processed and analyzed by flow cytometry. Percentage of live and dead MCF-7 cells in the absence and presence of 4 and 8 μM (1R,2R,5S)-1c and 4 μM cisplatin was determined by flow cytometry using propidium iodide (PI).
# [7] = system: PARP-1 in MCF-7 cells; assay: Western blot analysis for PARP cleavage; assay type: cell-based, human; conditions: MCF-7, 4 and 8 μM, 48 h; cisplatin 4 μM as comparison
# Protocol: Experiment: MCF-7 cells (5 mL) were seeded at a density of 1.5×10^5 cells/mL in 60 mm cell culture dishes. After cell attachment, they were incubated with 4 and 8 μM (1R,2R,5S)-1c and 4 μM cisplatin for 48 h. The cells were then processed and the whole cell lysate was isolated. An equal amount of total protein was resolved on SDS-PAGE and electroblotted onto a PVDF membrane (Millipore). Immunoblotting was performed using specific antibodies against PARP-1 and β-actin. The blots were developed by chemiluminescence using HRP conjugated secondary IgG.
# [8] = system: γ-H2AX in MCF-7 cells; assay: Immunofluorescence microscopy for DNA damage (γ-H2AX); assay type: cell-based, human; conditions: MCF-7, 4 and 8 μM, 36 h; cisplatin 4 μM as comparison
# Protocol: Experiment: MCF-7 (5×10^4 cells/well) cells were seeded on glass cover slip in a 24 well cell culture plate. After the cell were attached, they were incubated with 4 and 8 μM (1R,2R,5S)-1c and 4 μM cisplatin for 36 h, fixed with 3.7% formaldehyde and processed for immunostaining. After fixing, cells were blocked with 2% BSA and incubated with anti-γ H2AX IgG (1:200) for 2 h at 37° C. followed by Alexa flour 555 goat anti-rabbit secondary IgG (1:400) for 1 h at 37° C. Hoechst 33258 was used to stain the DNA. Immunofluorescence imaging was performed using iPlan-apochromat 40×/1.3 NA oil immersion objective in Confocal Laser Scanning microscope. Image J software was used to calculate the fluorescence intensity. 500 cells were scored in each case.
# [9] = system: intracellular ROS in MCF-7 cells; assay: Reactive oxygen species (ROS) assay using H2DCFDA, flow cytometry; assay type: cell-based, human; conditions: 24 h
# Protocol: Experiment: Reactive oxygen species (ROS) production in cells when treated with (1R,2R,5S)-1c, was estimated by ROS assay using 2′,7′-dichlorodihydrofluorescein diacetate (H2DCFDA). MCF-7 cells (5 mL) were seeded in 60 mm cell culture dishes at a density of 1.5×10^5 cells/mL. After cell attachment, they were incubated with 4 and 8 μM (1R,2R,5S)-1c for 24 h. Cells treated with 30 μM hydrogen peroxide was used as a positive control. Following 24 h of incubation, the cells were processed and analyzed using flow cytometry. The percentage of DCFH-DA positive MCF-7 cells in the absence and presence 4 and 8 μM (1R,2R,5S)-1c was determined by flow cytometry. 30 μM H2O2 was used as a positive control. Data are average of three independent set of experiments and ±indicates S.D.
# [10] = system: MCF-7 cells; assay: Cell cycle analysis by flow cytometry (PI); assay type: cell-based, human; conditions: 36 h
# Protocol: (§2) Experiment: MCF-7 cells (5 mL) were seeded in 60 mm cell culture dishes at a density of 1.5×10^5 cells/mL. The cells were incubated with 2 and 4 μM (1R,2R,5S)-1c for 36 h for cell cycle analysis. After the required incubation, cells were processed and analyzed by flow cytometry. Cell cycle data was analyzed using Flow Jo software. Cell cycle analysis and mitotic indices of MCF-7 cells in the absence and presence 2 and 4 μM (1R,2R,5S)-1c. Cell cycle analysis was done using flow cytometer after incubating the cells with PI. The data was analyzed using Flow Jo software. Data were average of three independent set of experiments with S.D (±). Mitotic index (percentage of cells in mitosis) was calculated based on DNA morphology of cells stained with Hoechst 33258. Data were average of three independent set of experiments with S.D (±). 1000 cells were scored in each set.
# [11] = system: MCF-7 cells; assay: Mitotic index from DNA morphology (Hoechst 33258); assay type: cell-based, human
# Protocol: as §2
# [12] = system: p21 in MCF-7 cells; assay: Immunostaining for nuclear accumulation of p21; assay type: cell-based, human; conditions: MCF-7, 4 and 8 μM, 36 h
# Protocol: Experiment: MCF-7 (5×10^4 cells/well) cells were seeded on glass cover slip in a 24-well cell culture plate. After the cells were attached, they were incubated with 4 and 8 μM (1R,2R,5S)-1c for 36 h, fixed with 3.7% formaldehyde and processed for immunostaining. After fixing, cells were blocked with 2% BSA and incubated with anti-p53 IgG (1:300) and anti-p21 IgG (1:300) for 2 h at 37° C. Primary antibody incubation was followed by Alexa Fluor 568-conjugated sheep anti-mouse secondary IgG (1:400) incubation for 1 h at 37° C. Hoechst 33258 was used to stain the DNA. Immunofluorescence images were captured using Eclipse TE 2000U microscope (Nikon, Tokyo, Japan) at 40× magnification and processed by Image-Pro Plus software (Media Cybernetics, Silver Spring, Md.). To determine the percentage of cells with nuclear accumulation of p53 and p21, 1000 cells were scored in each case. The experiment was repeated thrice.
substance,measurement,setting,value
"trans-[1-(1R)-menthyl-4-(ethyl)-1,2,4-triazol-5-ylidene]2Pd(OCOCF3)2 [(1R,2R,5S)-1c]",IC50,[1],5.7 ± 1.6 µM
same,IC50,[2],1.3 ± 0.4 µM
same,IC50,[3],4.8 ± 0.3 µM
same,times more selective towards the cancer cells (B16-F10 vs L929),[4],around 8.1 times
same,times more selective towards the cancer cells (MCF-7 vs MCF10A),[5],around 16 times
same,Cell death (in words),[6]; MCF-7,leads to cell death in MCF-7 cells
same,Dead %,"[6]; MCF-7, 4 μM",41 ± 2%
same,Live %,"[6]; MCF-7, 4 μM",59 ± 2%
same,Dead %,"[6]; MCF-7, 8 μM",90 ± 1%
same,Live %,"[6]; MCF-7, 8 μM",10 ± 1%
same,PARP cleavage (in words),[7],more pronounced than cisplatin; also recorded: cleaves PARP in MCF-7 cells
same,"DNA damage, γ-H2AX immunostaining (in words)",[8],stronger DNA damaging effect on MCF-7 cells than cisplatin; also recorded: more DNA damage than compared to Cisplatin; also recorded: causes DNA damage in MCF-7 cells
same,% of DCFH-DA positive cells,"[9]; MCF-7, 4 μM",49 ± 11%
same,% of DCFH-DA positive cells,"[9]; MCF-7, 8 μM",74 ± 1%
same,Intracellular ROS generation (in words),"[9]; MCF-7, 4 and 8 μM",leads ROS production in cells; also recorded: ROS is generated in MCF-7 cells
same,% of cells in different phases of cell cycle: G1,"[10]; MCF-7, 2 μM",30 ± 2%
same,% of cells in different phases of cell cycle: G2/M,"[10]; MCF-7, 2 μM",35 ± 2%
same,% of cells in different phases of cell cycle: S,"[10]; MCF-7, 2 μM",31 ± 2%
same,% of cells in different phases of cell cycle: G1,"[10]; MCF-7, 4 μM",18 ± 2%
same,% of cells in different phases of cell cycle: G2/M,"[10]; MCF-7, 4 μM",50 ± 2%
same,% of cells in different phases of cell cycle: S,"[10]; MCF-7, 4 μM",32 ± 3%
same,Cell cycle block (in words),"[10]; MCF-7, 2 and 4 μM",blocks MCF-7 cells at the G2 phase; also recorded: blocked cells at the G2/M phase
same,Mitotic Index (percentage of cells in mitosis),"[11]; MCF-7, 2 μM",3 ± 1%
same,Mitotic Index (percentage of cells in mitosis),"[11]; MCF-7, 4 μM",3.2 ± 1%
same,Arrest at mitosis (in words),"[11]; MCF-7, Hoechst 33258 DNA morphology",did not arrest cells at mitosis
same,Nuclear accumulation of p21 (in words),[12],nuclear accumulation of p21; also recorded: transcriptionally activates p21
